From US12616687B2, “Treatment of viral infection, disease or disorder using a selective sir agonist” (Prilenia Neurotherapeutics Ltd., priority 2020, dated 2026)
Where “and” joins values, the source holds several entries; their conditions need not be identical. Equal values may be shown once. Entries after “also recorded” stand apart in the source; their conditions may differ. Read-outs that look alike come from different tables or passages of the source.

Columns and labels:
[1] = system: YAC128 HD striatal neurons; test: mitochondrial ROS (H2O2, MitoPY1) in YAC128 HD striatal neurons; format: cell-based, mouse; conditions: Ant A 2 μM
Method: YAC128 is a mouse model of Huntington's Disease (HD), Striatal neurons from wt or YAC128 were treated or not with 1 μM pridopidine and incubated with MitoPY1 fluorescence probe. The mitochondrial respiration inhibitor Antimycin A (Ant A, 2 μM) was used to induce release of Mitochondrial H2O2 and oxidative stress. Mitochondrial H2O2 was recorded in spinning disk confocal before and after administration of Ant A (n=4, considering ˜20 cells/condition).
Striatal neurons from YAC128 HD mice were treated with 1 μM pridopidine prior to induction of ROS production by the mitochondrial respiration inhibitor antimycin A (Ant A).

[2] = at the concentration showing anti-viral activity; cited from earlier work
[3] = system: lymphoblasts from HD patients; test: mitochondrial membrane potential (TMRE) in control and S1R-KD HD lymphoblasts; format: cell-based, human
Method: Cells were treated with pridopidine 5 μM, then challenged with 0.1 mM H2O2.

[4] = target: T1, S1R (Homo sapiens, UniProt Q99720); conditions: cited from earlier work
[5] = target: S2R (Homo sapiens, UniProt Q5BJF2); conditions: cited from earlier work
[6] = system: SARS-CoV-2; conditions: viral titer assay; cited from earlier work
[7] = system: eIF2α-phosphorylation; test: eIF2α-phosphorylation, ER stress induced by thapsigargin; format: cell-based; conditions: 2 μg/ml thapsigargin
Method: HEK293 cells transfected with Htt20Q-mCherry (wt HTT) were treated with 2 μg/ml thapsigargin to induce ER stress.

[8] = system: ATF4
Method: (§1) Cells expressing myc-Htt96Q (mutant Htt) or myc-Htt20Q (wt Htt) were treated with pridopidine 3 uM. Immunoblots were reacted with anti-ATF4 (FIG. 7A), anti-CHOP (FIG. 7B) and anti-GADD34 (FIG. 7C), quantified and normalized with anti-actin or anti-tubulin as loading controls.

[9] = system: CHOP
Method: as §1

[10] = system: GADD34
Method: as §1

[11] = system: ATF6; conditions: myc-Htt96Q cells
Method: Cells expressing myc-Htt96Q (mutant Htt) were treated with pridopidine 0.03 and 3 μM. Immunoblots were reacted with anti-ATF6 quantified and normalized with anti-tubulin as loading controls.

[12] = system: Striatal WT and YAC128 (HD) neurons; conditions: 24 h; for mitochondrial membrane potential (MMP) in HD (YAC128) neurons: 0.1 and 1 μM
Description: The role of S1R in regulating mitochondrial membrane potential (MMP) was studied in striatal neurons from wild-type (WT) control and YAC128 HD mice.

[13] = target: T1, S1R
[14] = system: XBP1s; conditions: myc-Htt96Q cells, 3 μM (p<0.01)
[15] = system: interferon-stimulated genes (ISGs)
[16] = HEK293, Htt96Q-induced ER stress
[17] = pridopidine 5 μM, 24 h, 0.1 mM H2O2

T1 sequence (Q99720 whole entry): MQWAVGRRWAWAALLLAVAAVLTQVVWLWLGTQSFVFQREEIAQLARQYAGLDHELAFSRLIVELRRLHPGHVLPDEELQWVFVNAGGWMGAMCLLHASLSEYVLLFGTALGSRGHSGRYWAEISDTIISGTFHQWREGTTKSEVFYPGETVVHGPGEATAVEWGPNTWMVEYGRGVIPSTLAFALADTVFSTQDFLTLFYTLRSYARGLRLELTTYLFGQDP
Sequence of S2R (Q5BJF2 whole entry): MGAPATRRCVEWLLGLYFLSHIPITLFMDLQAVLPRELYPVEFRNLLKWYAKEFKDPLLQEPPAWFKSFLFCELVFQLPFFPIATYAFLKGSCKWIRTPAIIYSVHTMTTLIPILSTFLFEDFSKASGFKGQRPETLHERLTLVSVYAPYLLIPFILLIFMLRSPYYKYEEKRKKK

## CCCCCC[C@H]1C(=O)O[C@H](C)[C@H](NC(=O)c2cccc(NC=O)c2O)C(=O)O[C@@H](C)[C@@H]1OC(=O)CC(C)C [Ant A, Antimycin A, reference compound]
[1]; untreated YAC128 neurons
  increase of mitochondrial H2O2 / ROS production: ~2 fold

## CN1CCC[C@@H]1CCO[C@](C)(c1ccccc1)c1ccc(Cl)cc1 [Clemastine]
[2]
  reduction in cell viability / cell death: ~40%

## OO [Compound H2O2, H2O2, reference compound]
[3]; 0.1 mM H2O2, HD lymphoblasts
  reduction of MMP in S1R+/+ cells: 25%
[3]; 0.1 mM H2O2, HD lymphoblasts, S1R knocked down ~83%
  reduction of MMP in S1R KD cells: 75%

## O=C(CCCN1CCC(O)(c2ccc(Cl)cc2)CC1)c1ccc(F)cc1 [Haloperidol]
[2]
  reduction in cell viability / cell death: ~30%

## CCN(CCO)CCCC(C)Nc1ccnc2cc(Cl)ccc12 (stereo not drawn) [hydroxychloroquine]
[4]
  Ki: 200 nM
[5]
  Ki: 800 nM
[6]
  concentration at which anti-viral activity was demonstrated: ~2 µM
[2]
  reduction in cell viability / cell death: ~30%

## CCCN1CCC(c2cccc(S(C)(=O)=O)c2)CC1 [pridopidine, 4-[3-(methylsulfonyl)phenyl]-1-propyl-piperidine]
[7]; HEK293, wt HTT, pridopidine 3 μM, 8 hours
  eIF2α-p (ratio of eIF2α-P/eIF2α): caused a reduction; also recorded: reduces p-eIF2α levels
[8]; [16]
  ATF4 protein level after treatment: normal wt levels
[8]; myc-Htt96Q cells, 3 μM (p<0.05)
  reduction of ATF4 levels: ~4.5 fold
[9]; [16]
  CHOP protein level after treatment: normal wt levels
[9]; myc-Htt96Q cells, 3 μM
  reduction of CHOP levels: ~2 fold
[10]; [16]
  GADD-34 protein level after treatment: normal wt levels
[10]; myc-Htt96Q cells, 3 μM (p<0.01)
  reduction of GADD-34 levels: ~2.5 fold
[11]; 0.03 μM
  reduction of ATF6: ~10%
[11]; 3 μM
  reduction of ATF6: 35% and ~30%
[1]; YAC128 striatal neurons, pridopidine 1 μM
  mitochondrial ROS (H2O2) production after Ant A: robust and significant reduction of ROS production by mitochondria back to normal levels; also recorded: inhibits H2O2 release and oxidative stress
[12]; 0.1 μM
  mitochondrial membrane potential (MMP) in WT neurons: trend towards increasing MMP
[12]; 1 μM
  mitochondrial membrane potential (MMP) in WT neurons: significant increase
[12]
  mitochondrial membrane potential (MMP) in HD (YAC128) neurons: significant increase
[12]; listed as Pridopidine
  mitochondrial membrane potential (MMP) in HD (YAC128) neurons: significantly restores the impaired MMP
[12]; concentration not stated (FIG. 11 legend)
  mitochondrial membrane potential (MMP) in wt neurons: enhances MMP
[3]; [17]
  MMP after H2O2 challenge in S1R KD cells: abolished and not
  MMP after H2O2 challenge in S1R+/+ cells: completely restored
[13]
  fold higher affinity for the S1R vs the S2R: 95 fold
[14]
  reduction in XBP1s mRNA levels: 25%
[15]
  reduction of expression of ISGs (IFIT1, EIF2AK2, IRF7 indexed together): 30-50%

## C/C=C(/C)C(=O)O[C@H]1C(C)=C2[C@H]([C@@H]1OC(=O)CCCCCCC)[C@@](C)(OC(C)=O)C[C@H](OC(=O)CCC)[C@@]1(O)[C@H]2OC(=O)[C@@]1(C)O [thapsigargin, reference compound]
[7]; HEK293, myc-Htt20Q
  increase in phosphorylated eIF2α (eIF2α-p): 70%
